Laboratory results published in publication PMC7560867, “Unique dynamic mode between Artepillin C and human serum albumin implies the characteristics of Brazilian green propolis representative bioactive component” (Scientific Reports, 2020).

Target: T1, Human serum albumin (HSA) (Homo sapiens, UniProt P02768)
T1 construct: gene ALB
Assay: intrinsic fluorescence quenching, excitation […] nm, emission […] nm
Assay type: binding
Conditions: 295 K, PBS pH 7.4, 0.5 uM HSA, no warfarin; double-log; n 0.8430; quenching described as dynamic; Sudlow's site I (IIA)

T1 sequence (P02768 25-609): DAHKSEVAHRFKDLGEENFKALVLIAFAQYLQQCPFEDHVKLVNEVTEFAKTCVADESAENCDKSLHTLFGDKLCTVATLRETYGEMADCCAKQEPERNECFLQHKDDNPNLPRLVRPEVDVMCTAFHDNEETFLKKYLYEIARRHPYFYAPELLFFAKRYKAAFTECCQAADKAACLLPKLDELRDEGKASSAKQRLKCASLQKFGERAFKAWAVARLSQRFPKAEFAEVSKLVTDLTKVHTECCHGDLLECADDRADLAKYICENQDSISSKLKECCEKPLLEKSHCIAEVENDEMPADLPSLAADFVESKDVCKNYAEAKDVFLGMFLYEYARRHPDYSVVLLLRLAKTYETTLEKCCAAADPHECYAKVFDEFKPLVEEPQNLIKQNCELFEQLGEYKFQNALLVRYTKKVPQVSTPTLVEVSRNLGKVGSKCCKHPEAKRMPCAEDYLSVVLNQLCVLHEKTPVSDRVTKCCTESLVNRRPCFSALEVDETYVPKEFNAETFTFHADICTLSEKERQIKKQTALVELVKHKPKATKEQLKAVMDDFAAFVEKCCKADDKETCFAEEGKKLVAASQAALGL

KA: 908000 L/mol
SMILES: CC(C)=CCc1cc(/C=C/C(=O)O)cc(CC=C(C)C)c1O [Artepillin C, 3,5-diprenyl-4-hydroxycinnamic acid]
